Results taken from patent US20260158014A1, “METHODS OF ADMINISTERING VOXELOTOR” (Global Blood Therapeutics, Inc., priority 2021, published 2026).
“Also recorded” adds a separate entry of the source.

What was measured:
patients with SCD = experiment: HOPE Phase 3 trial: efficacy; format: in vivo, human
Protocol: The efficacy and safety of OXBRYTA in SCD was evaluated in HOPE, a Phase 3 randomized, double-blind, placebo-controlled, multicenter trial [NCT 03036813]. In this study, 274 patients were randomized to daily oral administration of OXBRYTA 1,500 mg (N=90), OXBRYTA 900 mg (N=92), or placebo (N=92). Patients were included if they had from 1 to 10 vaso-occlusive crisis (VOC) events within 12 months prior to enrollment and baseline hemoglobin (Hb) ≥5.5 to ≤10.5 g/dL. Eligible patients on stable doses of hydroxyurea for at least 90 days were allowed to continue hydroxyurea therapy throughout the study. Randomization was stratified by patients already receiving hydroxyurea (yes, no), geographic region (North America, Europe, Other), and age (12 to <17 years, 18 to 65 years). The trial excluded patients who received red blood cell (RBC) transfusions within 60 days and erythropoietin within 28 days of enrollment, had renal insufficiency, uncontrolled liver disease, were pregnant, or lactating.
The majority of patients had HbSS or HbS/beta^0-thalassemia genotype (90%) and were receiving background hydroxyurea therapy (65%). The median age was 24 years (range: 12 to 64 years); 46 (17%) patients were 12 to <17 years. Median baseline Hb was 8.5 g/dL (5.9 to 10.8 g/dL). One hundred and fifteen (42%) had 1 VOC event and 159 (58%) had 2 to 10 events within 12 months prior to enrollment. In the OXBRYTA 1,500 mg group, 63 (70%) patients completed the study through Week 72.
Efficacy was based on Hb response rate defined as a Hb increase of >1 g/dL from baseline to Week 24 in patients treated with OXBRYTA 1,500 mg versus placebo. […] No outlier subgroups were observed. The distribution of Hb change from baseline for individual patients completing 24 weeks of treatment with OXBRYTA 1,500 mg or placebo is depicted in FIG. 2.
Additional efficacy evaluation included change in Hb and percent change in indirect bilirubin and percent reticulocyte count from baseline to Week 24 (Table 15).

RasH2 transgenic mice = experiment: 26-week carcinogenicity study; format: in vivo, mouse; details: 26 weeks; oral 30, 150, or 500 mg/kg/day
[1] = Physicochemical description (solubility, hygroscopicity); details: crystalline Form II free base
OAT3 = OAT3 (Homo sapiens, UniProt Q8TCC7); experiment: In vitro transporter study; format: in vitro ADME
P-gp = P-gp (Homo sapiens, UniProt P08183); experiment: In vitro transporter study; format: in vitro ADME
Chain of P-gp (P08183 whole entry): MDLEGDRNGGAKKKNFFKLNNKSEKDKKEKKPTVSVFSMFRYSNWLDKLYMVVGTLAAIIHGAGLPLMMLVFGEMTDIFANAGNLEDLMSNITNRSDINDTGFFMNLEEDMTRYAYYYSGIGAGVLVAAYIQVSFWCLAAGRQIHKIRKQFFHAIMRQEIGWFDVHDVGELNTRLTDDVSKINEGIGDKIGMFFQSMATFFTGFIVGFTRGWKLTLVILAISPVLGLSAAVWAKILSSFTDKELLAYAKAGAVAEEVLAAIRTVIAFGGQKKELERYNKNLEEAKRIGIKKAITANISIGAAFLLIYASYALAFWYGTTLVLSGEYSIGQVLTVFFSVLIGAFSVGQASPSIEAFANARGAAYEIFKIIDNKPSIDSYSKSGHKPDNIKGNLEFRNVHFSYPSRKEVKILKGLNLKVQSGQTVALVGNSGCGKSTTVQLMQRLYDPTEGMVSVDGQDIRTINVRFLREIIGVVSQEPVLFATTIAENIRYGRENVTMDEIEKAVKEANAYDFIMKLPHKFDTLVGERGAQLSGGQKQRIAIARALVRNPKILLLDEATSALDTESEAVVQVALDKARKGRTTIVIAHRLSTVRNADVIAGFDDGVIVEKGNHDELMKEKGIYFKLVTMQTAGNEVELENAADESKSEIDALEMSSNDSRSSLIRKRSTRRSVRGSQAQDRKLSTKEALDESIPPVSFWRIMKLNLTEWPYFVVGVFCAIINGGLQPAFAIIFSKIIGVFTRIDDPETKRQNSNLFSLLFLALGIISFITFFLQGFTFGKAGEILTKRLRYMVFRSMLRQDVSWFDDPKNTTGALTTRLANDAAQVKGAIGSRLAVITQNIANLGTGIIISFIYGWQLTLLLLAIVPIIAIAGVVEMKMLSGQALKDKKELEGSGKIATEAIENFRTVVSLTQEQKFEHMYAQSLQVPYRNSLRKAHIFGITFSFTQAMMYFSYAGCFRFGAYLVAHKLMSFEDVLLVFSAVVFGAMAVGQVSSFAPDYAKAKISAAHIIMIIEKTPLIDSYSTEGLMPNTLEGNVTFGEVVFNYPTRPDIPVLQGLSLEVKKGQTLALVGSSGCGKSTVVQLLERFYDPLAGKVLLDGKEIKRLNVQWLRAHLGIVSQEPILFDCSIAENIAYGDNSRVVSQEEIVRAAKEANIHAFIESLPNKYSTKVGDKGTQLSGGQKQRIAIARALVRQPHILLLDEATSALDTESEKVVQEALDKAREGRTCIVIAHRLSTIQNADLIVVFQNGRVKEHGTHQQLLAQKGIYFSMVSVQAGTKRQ

CYP2C19 = molecular target: T1, CYP2C19 (Homo sapiens, UniProt P33261); experiment: Clinical probe-substrate DDI study: omeprazole; format: in vivo
T1 construct: endogenous in cells; host or cells: healthy human subjects (in vivo)
T1 sequence (P33261 whole entry): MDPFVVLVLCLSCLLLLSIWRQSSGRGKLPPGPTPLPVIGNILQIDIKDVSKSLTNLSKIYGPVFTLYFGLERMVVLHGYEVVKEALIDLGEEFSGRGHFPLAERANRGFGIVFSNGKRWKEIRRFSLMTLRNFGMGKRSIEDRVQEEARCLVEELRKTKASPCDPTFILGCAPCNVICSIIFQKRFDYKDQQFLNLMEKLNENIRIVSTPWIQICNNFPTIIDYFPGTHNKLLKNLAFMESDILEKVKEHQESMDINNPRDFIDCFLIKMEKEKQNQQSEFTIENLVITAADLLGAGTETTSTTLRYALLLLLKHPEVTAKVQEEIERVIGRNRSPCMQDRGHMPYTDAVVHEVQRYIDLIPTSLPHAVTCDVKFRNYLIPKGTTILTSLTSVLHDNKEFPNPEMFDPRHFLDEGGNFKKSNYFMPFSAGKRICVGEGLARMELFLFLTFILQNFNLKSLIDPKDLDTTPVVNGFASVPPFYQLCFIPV
Protocol: (§1) The effect of voxelotor on the pharmacokinetics (PK) of a single dose of caffeine, warfarin sodium, omeprazole, and midazolam hydrochloride, which are probe substrates for cytochrome P450 (CYP)1A2, CYP2C9, CYP2C19, and CYP3A4, respectively, were studied in healthy subjects. During Period 1, subjects received a single dose of caffeine 100 mg, warfarin sodium 10 mg+vitamin K 10 mg, omeprazole 20 mg, and midazolam hydrochloride 2 mg on Day 1. During Period 2, subjects received voxelotor 900 mg QD on Days 1 and 2 followed by 600 mg QD on Day 3, a single dose of caffeine 100 mg, warfarin sodium 10 mg+vitamin K 10 mg, omeprazole 20 mg, and midazolam hydrochloride 2 mg on Day 4, and voxelotor 600 mg QD on Days 4 through 7.
(§2) Whole blood and plasma concentrations of voxelotor and plasma concentrations of caffeine, paraxanthine, S-warfarin, omeprazole, 5-hydroxyomeprazole, midazolam, and 1-hydroxymidazolam were determined using validated assays.

[2] = PK in patients with HbSC genotype; format: in vivo, human
CYP2B6 = CYP2B6 (Homo sapiens, UniProt P20813); experiment: In vitro CYP enzyme study; format: in vitro ADME
Chain of CYP2B6 (P20813 whole entry, species assumed): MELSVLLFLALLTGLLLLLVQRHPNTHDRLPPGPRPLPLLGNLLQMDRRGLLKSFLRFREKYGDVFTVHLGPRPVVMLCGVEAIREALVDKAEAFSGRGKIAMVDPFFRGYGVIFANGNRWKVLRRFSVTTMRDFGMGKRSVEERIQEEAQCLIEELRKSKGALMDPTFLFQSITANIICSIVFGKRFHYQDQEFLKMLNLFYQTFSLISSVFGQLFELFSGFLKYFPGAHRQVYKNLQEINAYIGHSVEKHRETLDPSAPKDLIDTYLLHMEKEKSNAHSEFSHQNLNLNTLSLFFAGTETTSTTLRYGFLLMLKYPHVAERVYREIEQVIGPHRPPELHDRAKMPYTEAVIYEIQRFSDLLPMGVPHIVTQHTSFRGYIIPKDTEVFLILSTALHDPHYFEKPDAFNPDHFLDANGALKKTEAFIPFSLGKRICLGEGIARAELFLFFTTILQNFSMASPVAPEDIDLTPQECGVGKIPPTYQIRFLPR

OCT2 = OCT2 (Homo sapiens, UniProt O15244); experiment: In vitro transporter study; format: in vitro ADME
rat = experiment: Rat micronucleus assay; details: in vivo
CYP3A4 = CYP3A4 (Homo sapiens, UniProt P08684); experiment: Clinical probe-substrate DDI study: midazolam; details: human, in vivo
Chain of CYP3A4 (P08684 whole entry): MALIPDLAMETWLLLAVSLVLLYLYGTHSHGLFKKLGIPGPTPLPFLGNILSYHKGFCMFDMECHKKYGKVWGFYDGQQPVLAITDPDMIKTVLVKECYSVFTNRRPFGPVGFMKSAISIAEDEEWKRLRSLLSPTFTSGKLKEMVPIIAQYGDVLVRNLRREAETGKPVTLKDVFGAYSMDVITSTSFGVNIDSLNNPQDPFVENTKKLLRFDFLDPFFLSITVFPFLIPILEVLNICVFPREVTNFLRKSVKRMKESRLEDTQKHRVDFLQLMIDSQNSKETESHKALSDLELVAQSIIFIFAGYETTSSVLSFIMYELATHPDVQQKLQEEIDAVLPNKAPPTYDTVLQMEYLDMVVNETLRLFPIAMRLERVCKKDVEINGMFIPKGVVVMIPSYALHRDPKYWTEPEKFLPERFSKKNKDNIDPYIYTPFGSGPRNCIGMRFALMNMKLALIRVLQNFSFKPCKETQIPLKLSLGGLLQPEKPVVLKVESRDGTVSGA
Protocol: as §1, §2

[3] = system: bacterial reverse mutation; experiment: Reverse mutation bacterial (Ames) test; format: cell-based
OATP1B1 = OATP1B1 (Homo sapiens, UniProt Q9Y6L6); experiment: In vitro transporter study; format: in vitro ADME
Chain of OATP1B1 (Q9Y6L6 whole entry, species assumed): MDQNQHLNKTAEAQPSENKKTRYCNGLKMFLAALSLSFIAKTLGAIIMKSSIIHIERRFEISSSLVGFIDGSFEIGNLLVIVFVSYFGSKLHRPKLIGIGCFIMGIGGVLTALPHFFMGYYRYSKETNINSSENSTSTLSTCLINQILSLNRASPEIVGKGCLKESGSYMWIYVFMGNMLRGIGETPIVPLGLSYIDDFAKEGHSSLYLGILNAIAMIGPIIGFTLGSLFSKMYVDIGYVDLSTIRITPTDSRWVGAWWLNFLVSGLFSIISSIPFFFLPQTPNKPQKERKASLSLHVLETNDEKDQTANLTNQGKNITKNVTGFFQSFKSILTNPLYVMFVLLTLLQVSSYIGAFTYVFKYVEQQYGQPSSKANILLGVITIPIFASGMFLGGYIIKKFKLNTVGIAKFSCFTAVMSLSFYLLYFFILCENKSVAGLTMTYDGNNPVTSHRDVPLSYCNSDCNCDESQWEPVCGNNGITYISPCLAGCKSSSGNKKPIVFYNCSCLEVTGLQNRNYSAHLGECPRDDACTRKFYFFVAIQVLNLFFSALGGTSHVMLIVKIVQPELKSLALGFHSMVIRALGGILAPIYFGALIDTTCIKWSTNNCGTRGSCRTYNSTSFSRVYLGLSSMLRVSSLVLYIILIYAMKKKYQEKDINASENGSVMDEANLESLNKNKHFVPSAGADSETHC

BSEP = BSEP (Homo sapiens, UniProt O95342); experiment: In vitro transporter study; format: in vitro ADME
Chain of BSEP (O95342 whole entry, species assumed): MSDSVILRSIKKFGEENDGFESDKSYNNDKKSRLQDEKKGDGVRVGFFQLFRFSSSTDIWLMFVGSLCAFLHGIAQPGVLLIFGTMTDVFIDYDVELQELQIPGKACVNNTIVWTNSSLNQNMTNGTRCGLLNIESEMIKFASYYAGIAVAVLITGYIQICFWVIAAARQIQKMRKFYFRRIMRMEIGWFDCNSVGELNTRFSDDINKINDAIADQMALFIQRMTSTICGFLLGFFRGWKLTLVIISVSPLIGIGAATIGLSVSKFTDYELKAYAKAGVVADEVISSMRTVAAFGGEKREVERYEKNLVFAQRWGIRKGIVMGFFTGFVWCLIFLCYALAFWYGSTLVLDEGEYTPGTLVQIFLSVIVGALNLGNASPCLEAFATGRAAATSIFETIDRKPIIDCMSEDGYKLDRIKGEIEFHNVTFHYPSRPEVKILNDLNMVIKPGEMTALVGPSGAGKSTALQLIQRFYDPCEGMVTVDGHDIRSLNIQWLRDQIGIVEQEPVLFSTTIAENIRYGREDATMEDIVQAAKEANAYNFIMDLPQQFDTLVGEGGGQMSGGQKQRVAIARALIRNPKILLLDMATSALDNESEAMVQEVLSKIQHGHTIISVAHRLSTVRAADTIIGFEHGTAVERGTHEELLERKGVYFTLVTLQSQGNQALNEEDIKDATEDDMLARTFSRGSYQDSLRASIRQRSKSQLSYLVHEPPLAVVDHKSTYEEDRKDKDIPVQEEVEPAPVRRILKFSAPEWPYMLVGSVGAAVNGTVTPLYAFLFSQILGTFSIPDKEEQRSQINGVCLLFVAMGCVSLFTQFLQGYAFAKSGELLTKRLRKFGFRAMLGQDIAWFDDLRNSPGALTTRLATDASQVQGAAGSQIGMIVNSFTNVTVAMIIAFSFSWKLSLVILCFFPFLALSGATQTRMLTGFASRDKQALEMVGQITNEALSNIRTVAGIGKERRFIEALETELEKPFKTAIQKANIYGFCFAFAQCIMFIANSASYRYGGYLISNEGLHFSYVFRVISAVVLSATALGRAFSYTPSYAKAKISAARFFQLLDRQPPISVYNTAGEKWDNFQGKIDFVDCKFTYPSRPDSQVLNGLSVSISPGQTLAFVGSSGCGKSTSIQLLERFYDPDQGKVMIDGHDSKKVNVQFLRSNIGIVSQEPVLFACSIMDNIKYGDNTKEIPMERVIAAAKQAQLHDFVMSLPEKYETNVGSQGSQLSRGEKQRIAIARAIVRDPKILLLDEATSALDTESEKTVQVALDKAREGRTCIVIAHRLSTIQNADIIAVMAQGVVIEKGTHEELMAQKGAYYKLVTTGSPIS

pregnant rats = experiment: Embryo-fetal development study in rats; format: in vivo, rat; details: oral 15, 50, 250 mg/kg/day, gestation days 7 through 17
Protocol: In embryo-fetal development studies, voxelotor was administered orally to pregnant rats at 15, 50, and 250 mg/kg/day (gestation days 7 through 17) and rabbits at 25, 75, and 150 mg/kg/day (gestation days 7 through 19) through organogenesis.

CYP1A2 = CYP1A2 (Homo sapiens, UniProt P05177); experiment: Clinical probe-substrate DDI study: caffeine; format: in vivo
Protocol: as §1, §2

[4] = Excretion of radiolabeled voxelotor; format: in vivo

CC(C)n1nccc1-c1ncccc1COc1cccc(O)c1C=O [voxelotor, 2-hydroxy-6-((2-(1-isopropyl-1H-pyrazol-5-yl)pyridin-3-yl)methoxy)benzaldehyde]
adjusted mean change from baseline to Week 24 in hemoglobin (patients with SCD; 1,500 mg QD, N=90): 1.1 g/dL | adjusted mean percent change from baseline to Week 24 in indirect bilirubin (patients with SCD; 1,500 mg QD, N=90): −29.1% | adjusted mean percent change from baseline to Week 24 in percent reticulocyte count (patients with SCD; 1,500 mg QD, N=90): −18.0% | Hb response rate (Hb increase >1 g/dL from baseline to Week 24) (patients with SCD; 1,500 mg once daily, 46/90, adults and pediatric patients 12 years and older): 51% | carcinogenicity (RasH2 transgenic mice): not carcinogenic | hygroscopicity [1]: non-hygroscopic | solubility in common organic solvents such as acetone and toluene [1]: highly soluble | solubility in water [1]: insoluble in water | OAT3 inhibition (OAT3): not an inhibitor | P-gp inhibition (P-gp): not an inhibitor | substrate of P-gp (P-gp): not a substrate | effect of voxelotor on PK of CYP2C19 probe substrate omeprazole (CYP2C19; healthy subjects, voxelotor 900/600 mg QD, omeprazole 20 mg): no clinically meaningful effect | CYP2C19 inhibition in vivo (CYP2C19; human, in vivo): not | steady state whole blood AUC higher in HbSC vs HbSS genotype ([2]; HbSC n=11, HbSS n=220): 50% | steady state whole blood Cmax higher in HbSC vs HbSS genotype ([2]; HbSC n=11, HbSS n=220): 45% | steady state plasma AUC higher in HbSC vs HbSS genotype ([2]; human, in vivo): 23% | steady state plasma Cmax higher in HbSC vs HbSS genotype ([2]; human, in vivo): 15% | CYP2B6 induction (CYP2B6): inducer | CYP2B6 inhibition (CYP2B6): reversible and time-dependent inhibitor | OCT2 inhibition (OCT2): not an inhibitor | genotoxicity, rat micronucleus assay (rat): not genotoxic | CYP3A4 inhibition in vivo (CYP3A4): inhibits | CYP3A4 inhibitor classification (CYP3A4): moderate inhibitor | genotoxicity, Ames test [3]: not genotoxic | OATP1B1 inhibition (OATP1B1): not an inhibitor | substrate of OATP1B1 (OATP1B1): not a substrate | BSEP inhibition (BSEP): not an inhibitor | substrate of BSEP (BSEP): not a substrate | developmental outcome (pregnant rats): no adverse developmental effects; also recorded: no evidence of adverse developmental outcomes | effect of voxelotor on PK of CYP1A2 probe substrate caffeine (CYP1A2; healthy subjects, voxelotor 900/600 mg QD, caffeine 100 mg): no clinically meaningful effect | CYP1A2 inhibition in vivo (CYP1A2; human, in vivo): not | dose and metabolites excreted in urine [4]: 35.5% | dose and metabolites excreted into feces [4]: approximately 62.6% | dose excreted unchanged in feces [4]: 33.3% | dose excreted unchanged in urine [4]: 0.08%
